Residues, ends and D or L forms follow the SMILES beside them. No end group written: not given here.
What was measured:
[1] = biological target: MHC class I allele A*0101 (A1) (Homo sapiens, UniProt P04439, A114D/A174V/A182V/D101N/D185E/E176A/E190D/L180R/Q94H/R68K/S129P/T187R/V100A/V91M/W191G); assay: iScore multi-parametric analysis, A*0101; format: binding; conditions: for iScore, MHC Class I Molecule A*0101: level of binding: >0.5, 0.25-0.5, <0.25
Procedure: (§1) Finally, multiparametric analysis is performed on the results from these assays and an iScore is generated. The iScore represents a measure of the overall quality of peptide-MHC binding, enabling candidate peptides to be ranked in order of binding quality and allowing rational prioritisation of peptides for functional cellular follow-up studies.
(§2) As part of the validation of the iTopia system, a panel of overlapping peptides derived from the CMV pp 65 protein were used and their binding properties for the A*0201 allele analysed. A number of T cell epitopes restricted by HLA A*0201 had already been identified (by more conventional methodologies) by other researchers for this protein. In the iTopia study, it was reported that an iScore of: >0.5 represented “good quality binding”; between 0.25 and 0.5 represented “medium quality binding”; and <0.25 represented “poor quality binding”. Six of the 20 peptides which gave a “good” iScore (>0.5) for A*0201, represented previously characterised CMV pp 65 A*0201 epitopes.
(§3) Each MHC class I allele has different binding properties and affinities for peptides which they bind. Therefore, information obtained with HLA A*0201 in which peptides are ranked as good, medium or poor binders using >0.5, 0.25-0.5 and <0.25 as thresholds is not necessarily transferable between alleles. Also, different proteins are likely to have distinct immunogenic profiles and the affinities between peptides and MHC class I molecules will be different between proteins. This may be particularly relevant in the case of self-antigens where immunogenicity is likely to be lower than in foreign proteins.
(§4) Multi-parametric analysis permits the integration of half-life and ED50 parameters in an integrated iScore. This reflects the capability of a peptide to reconstitute with MHC molecules in a stable complex, defining its overall level of binding i.e. the iScore value represents the overall quality of peptide-MHC binding and is used to rank candidate peptides as an indicator of functional relevance. The lead candidate epitopes for each allele are selected for cellular functional analysis to confirm their biological relevance.
(§5) The changes in gradient of the graphs in FIGS. 7 to 10 are indicated by a line which delineates the populations of iScores forming the basis of discrimination for further functional studies.

[2] = biological target: MHC class I allele B*0702 (B7) (Homo sapiens, UniProt P01889); assay: iScore multi-parametric analysis, B*0702; conditions: level of binding: >0.5, 0.25-0.5, <0.25
Procedure: as §1
As part of the validation of the iTopia system, a panel of overlapping peptides derived from the CMV pp 65 protein were used and their binding properties for the A*0201 allele analysed. A number of T cell epitopes restricted by HLA A*0201 had already been identified (by more conventional methodologies) by other researchers for this protein. In the iTopia study, it was reported that an iScore of: >0.5 represented “good quality binding”; between 0.25 and 0.5 represented “medium quality binding”; and <0.25 represented “poor quality binding”.
as §4

[3] = biological target: MHC class I allele A*0301 (A3) (Homo sapiens, UniProt P04439); assay: iScore multi-parametric analysis, A*0301; format: binding; conditions: for iScore, MHC Class I Molecule A*0301: level of binding: >0.5, 0.25-0.5, <0.25
Procedure: as §1, §2, §3, §4, §5

[4] = biological target: MHC class I allele A*0201 (A2) (Homo sapiens, UniProt P04439, D140Y/D185E/D98H/E176V/E277Q/G131W/G231S/I119V/I121R/I166T/I218V/L300P/L318F/N151K/N90K/P208A/P217A/Q86G/Q94H/R138H/R169H/T345S); assay: iScore multi-parametric analysis, A*0201; format: binding; conditions: level of binding: >0.5, 0.25-0.5, <0.25
Procedure: as §1, §2, §3, §4, §5

## EHLPSLRQL [Peptide 70]
[1]
  iScore, MHC Class I Molecule A*0101: 0
[2]
  iScore, MHC Class I Molecule B*0702: 0
[3]
  iScore, MHC Class I Molecule A*0301: 0
[4]
  iScore, MHC Class I Molecule A*0201: 0.046

## LVLLGWVSS [Peptide 12]
[1]
  iScore, MHC Class I Molecule A*0101: 0
[2]
  iScore, MHC Class I Molecule B*0702: 0
[3]
  iScore, MHC Class I Molecule A*0301: 0
[4]
  iScore, MHC Class I Molecule A*0201: 0.122

## VLPAGAFAR [Peptide 53]
[1]
  iScore, MHC Class I Molecule A*0101: 0
[2]
  iScore, MHC Class I Molecule B*0702: 0
[3]
  iScore, MHC Class I Molecule A*0301: 0.027
[4]
  iScore, MHC Class I Molecule A*0201: 0.081

## LSNNSLVSL [Peptide 121]
[1]
  iScore, MHC Class I Molecule A*0101: 0
[2]
  iScore, MHC Class I Molecule B*0702: 0.112
[3]
  iScore, MHC Class I Molecule A*0301: 0
[4]
  iScore, MHC Class I Molecule A*0201: 0.116

## VFLDNNPWV [Peptide 145]
[1]
  iScore, MHC Class I Molecule A*0101: 0
[2]
  iScore, MHC Class I Molecule B*0702: 0
[3]
  iScore, MHC Class I Molecule A*0301: 0
[4]
  iScore, MHC Class I Molecule A*0201: 0.239

## NRVLLELNS [Peptide 166]
[1]
  iScore, MHC Class I Molecule A*0101: 0
[2]
  iScore, MHC Class I Molecule B*0702: 0
[3]
  iScore, MHC Class I Molecule A*0301: 0
[4]
  iScore, MHC Class I Molecule A*0201: 0.031

## LHNGTLAEL [Peptide 137]
[1]
  iScore, MHC Class I Molecule A*0101: 0
[2]
  iScore, MHC Class I Molecule B*0702: 0.026
[3]
  iScore, MHC Class I Molecule A*0301: 0
[4]
  iScore, MHC Class I Molecule A*0201: 0.187

## VFLGIVLAL [Peptide 179, VFLGIVLAL]
[1]
  iScore, MHC Class I Molecule A*0101: 0
[2]
  iScore, MHC Class I Molecule B*0702: 0
[3]
  iScore, MHC Class I Molecule A*0301: 0
[4]
  iScore, MHC Class I Molecule A*0201: 0.606

## RALQGLRRL [Peptide 104]
[1]
  iScore, MHC Class I Molecule A*0101: 0
[2]
  iScore, MHC Class I Molecule B*0702: 0.078
[3]
  iScore, MHC Class I Molecule A*0301: 0.027
[4]
  iScore, MHC Class I Molecule A*0201: 0.168

## VLLELNSAD [Peptide 167]
[1]
  iScore, MHC Class I Molecule A*0101: 0
[2]
  iScore, MHC Class I Molecule B*0702: 0
[3]
  iScore, MHC Class I Molecule A*0301: 0
[4]
  iScore, MHC Class I Molecule A*0201: 0.105

## NRKGIKKWM [Peptide 189]
[1]
  iScore, MHC Class I Molecule A*0101: 0
[2]
  iScore, MHC Class I Molecule B*0702: 0
[3]
  iScore, MHC Class I Molecule A*0301: 0
[4]
  iScore, MHC Class I Molecule A*0201: 0.138

## FEGMVVAAL [Peptide 98, FEGMVVAAL]
[1]
  iScore, MHC Class I Molecule A*0101: 0
[2]
  iScore, MHC Class I Molecule B*0702: 0
[3]
  iScore, MHC Class I Molecule A*0301: 0
[4]
  iScore, MHC Class I Molecule A*0201: 0.051

## HFLYLPRDV [Peptide 111]
[1]
  iScore, MHC Class I Molecule A*0101: 0
[2]
  iScore, MHC Class I Molecule B*0702: 0
[3]
  iScore, MHC Class I Molecule A*0301: 0
[4]
  iScore, MHC Class I Molecule A*0201: 0.227

## LALVLLGWV [Peptide 11]
[1]
  iScore, MHC Class I Molecule A*0101: 0
[2]
  iScore, MHC Class I Molecule B*0702: 0
[3]
  iScore, MHC Class I Molecule A*0301: 0
[4]
  iScore, MHC Class I Molecule A*0201: 0.237

## VRAGAFEHL [Peptide 67]
[1]
  iScore, MHC Class I Molecule A*0101: 0
[2]
  iScore, MHC Class I Molecule B*0702: 0.085
[3]
  iScore, MHC Class I Molecule A*0301: 0
[4]
  iScore, MHC Class I Molecule A*0201: 0

## NQLAVLPAG [Peptide 51]
[1]
  iScore, MHC Class I Molecule A*0101: 0
[2]
  iScore, MHC Class I Molecule B*0702: 0
[3]
  iScore, MHC Class I Molecule A*0301: 0
[4]
  iScore, MHC Class I Molecule A*0201: 0.22

## ALKVLHNGT [Peptide 135]
[1]
  iScore, MHC Class I Molecule A*0101: 0
[2]
  iScore, MHC Class I Molecule B*0702: 0
[3]
  iScore, MHC Class I Molecule A*0301: 0
[4]
  iScore, MHC Class I Molecule A*0201: 0.104

## FARRPPLAE [Peptide 56]
[1]
  iScore, MHC Class I Molecule A*0101: 0
[2]
  iScore, MHC Class I Molecule B*0702: 0
[3]
  iScore, MHC Class I Molecule A*0301: 0
[4]
  iScore, MHC Class I Molecule A*0201: 0.042

## AARTVKCVN [Peptide 36]
[1]
  iScore, MHC Class I Molecule A*0101: 0
[2]
  iScore, MHC Class I Molecule B*0702: 0.059
[3]
  iScore, MHC Class I Molecule A*0301: 0
[4]
  iScore, MHC Class I Molecule A*0201: 0.115

## GMVVAALLA [Peptide 99]
[1]
  iScore, MHC Class I Molecule A*0101: 0
[2]
  iScore, MHC Class I Molecule B*0702: 0
[3]
  iScore, MHC Class I Molecule A*0301: 0
[4]
  iScore, MHC Class I Molecule A*0201: 0.384

## ADPRLTNLS [Peptide 204]
[1]
  iScore, MHC Class I Molecule A*0101: 0
[2]
  iScore, MHC Class I Molecule B*0702: 0.094
[3]
  iScore, MHC Class I Molecule A*0301: 0
[4]
  iScore, MHC Class I Molecule A*0201: 0

## CSCC[C@H](NC(=O)[C@H](CC(=O)O)NC(=O)[C@H](C)NC(=O)[C@H](CCSC)NC(=O)[C@H](Cc1c[nH]cn1)NC(=O)[C@H](CS)NC(=O)[C@H](CC(=O)O)NC(=O)[C@H](CS)NC(=O)[C@@H](N)C(C)C)C(=O)O [Peptide 149] (H-VCDCHMADM-OH; N-terminus and C-terminus assumed)
[1]
  iScore, MHC Class I Molecule A*0101: 0
[2]
  iScore, MHC Class I Molecule B*0702: 0
[3]
  iScore, MHC Class I Molecule A*0301: 0
[4]
  iScore, MHC Class I Molecule A*0201: 0.061

## YVSFRNLTH [Peptide 126]
[1]
  iScore, MHC Class I Molecule A*0101: 0
[2]
  iScore, MHC Class I Molecule B*0702: 0.21
[3]
  iScore, MHC Class I Molecule A*0301: 0.086
[4]
  iScore, MHC Class I Molecule A*0201: 0

## LPRDVLAQL [Peptide 113]
[1]
  iScore, MHC Class I Molecule A*0101: 0
[2]
  iScore, MHC Class I Molecule B*0702: 0.305
[3]
  iScore, MHC Class I Molecule A*0301: 0
[4]
  iScore, MHC Class I Molecule A*0201: 0

## YEINADPRL [Peptide 202]
[1]
  iScore, MHC Class I Molecule A*0101: 0
[2]
  iScore, MHC Class I Molecule B*0702: 0
[3]
  iScore, MHC Class I Molecule A*0301: 0
[4]
  iScore, MHC Class I Molecule A*0201: 0.077

## HMEGYHYRY [Peptide 198]
[1]; integrates half-life and ED50
  iScore (iTopia), A*0101: 0.357
[1]
  iScore, MHC Class I Molecule A*0101: 0.357
[2]
  iScore, MHC Class I Molecule B*0702: 0
[3]; integrates half-life and ED50
  iScore (iTopia), A*0301: 0.189
[3]
  iScore, MHC Class I Molecule A*0301: 0.189
[4]
  iScore, MHC Class I Molecule A*0201: 0.24

## SNHFLYLPR [Peptide 110]
[1]
  iScore, MHC Class I Molecule A*0101: 0
[2]
  iScore, MHC Class I Molecule B*0702: 0
[3]
  iScore, MHC Class I Molecule A*0301: 0.084
[4]
  iScore, MHC Class I Molecule A*0201: 0.051

## CVNRNLTEV [Peptide 39]
[1]
  iScore, MHC Class I Molecule A*0101: 0
[2]
  iScore, MHC Class I Molecule B*0702: 0.093
[3]
  iScore, MHC Class I Molecule A*0301: 0
[4]
  iScore, MHC Class I Molecule A*0201: 0.05

## HMADMVTWL [Peptide 151]
[1]
  iScore, MHC Class I Molecule A*0101: 0
[2]
  iScore, MHC Class I Molecule B*0702: 0
[3]
  iScore, MHC Class I Molecule A*0301: 0
[4]
  iScore, MHC Class I Molecule A*0201: 0.821

## RSFEGMVVA [Peptide 97]
[1]
  iScore, MHC Class I Molecule A*0101: 0
[2]
  iScore, MHC Class I Molecule B*0702: 0
[3]
  iScore, MHC Class I Molecule A*0301: 0
[4]
  iScore, MHC Class I Molecule A*0201: 0.189

Reference: patent US8147838B2, “Peptide” (priority 2005, dated 2012)
